Experimental findings from US11008340B2, “Modulators of ROR-gamma” (Vitae Pharmaceuticals, LLC, priority 2015, dated 2021) are described below.

The target of one experiment is T1, recombinant RORγ Ligand Binding Domain (LBD) protein (Homo sapiens, UniProt P51449).
T1 construct: 6×His; GST
T1 sequence (P51449 269-508 limits assumed): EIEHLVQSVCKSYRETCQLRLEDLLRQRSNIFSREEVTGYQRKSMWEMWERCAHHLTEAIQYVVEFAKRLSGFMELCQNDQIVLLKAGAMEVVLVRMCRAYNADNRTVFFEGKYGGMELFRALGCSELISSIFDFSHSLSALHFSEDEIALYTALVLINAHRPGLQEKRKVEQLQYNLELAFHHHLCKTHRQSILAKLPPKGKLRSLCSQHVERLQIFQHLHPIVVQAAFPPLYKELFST
Description: Radio-Ligand RORγ Binding Assay (Assay 1). As to conditions: radio-ligand competition, 25-hydroxy [26,27-3H]-cholesterol, RORγ LBD; read-out: Avg ROR Bind Ki. As to the method:
Radio-Ligand RORγ Binding Assay (Assay 1)
Compounds described herein were tested for ability to bind to RORγ in a cell-free competition assay with commercially available radio-ligand (RL), 25-hydroxy [26,27-^3H]-cholesterol (PerkinElmer, Cat. #NET674250UC), for a ligand binding site on a recombinant RORγ Ligand Binding Domain (LBD) protein expressed as a 6×His-Glutathione-S-Transferase (GST) fusion. The assay was performed in 96-well SPA plates (PerkinElmer, Cat. #1450-401) in 50 mM HEPES buffer, pH 7.4, containing 150 mM NaCl, 5 mM MgCl2, 10% (v/v) glycerol, 2 mM CHAPS, 0.5 mM 3-octylglucopyranoside and 5 mM DTT. Tested compounds were dissolved in DMSO, and semi-log (3.162×) serial dilutions of the compounds were prepared in the same solvent. Two μL of the DMSO solutions were mixed with 28 μL of 8.6 nM 25-hydroxy [26,27-^3H]-cholesterol and 50 μL of 24 nM RORγ LBD. The plate was shaken at 700 rpm for 20 min and incubated for 10 min at rt, after which 40 μL of poly-Lys YSi SPA beads (PerkinElmer, Cat. #RPNQ0010) were added to achieve 50 μg of the beads per well. The plate was incubated on an orbital shaker for 20 min and then for 10 min without agitation at rt. SPA signal for tritium beta radiation was registered on PerkinElmer Microbeta plate reader. […] The percent inhibition vs. concentration data were fit into a four-parameter model, and IC50 values were calculated from the fit as the concentrations corresponding to the inflection points on the dose-response curves. Inhibitory constants (Ki) were calculated using the following equation, where [RL] is the concentration in the assay and KD is a dissociation constant of 25-hydroxy [26,27-^3H]-cholesterol: […]
In general, Ki refers to the equilibrium dissociation constant of an inhibitor or competing ligand from its target. As for `CC1c2ccc(C(=O)NCc3ccc(S(C)(=O)=O)cc3)cc2CCN1Cc1ccc(F)cc1` (racemic) [Hy2A-6, 2-(4-fluorobenzyl)-1-methyl-N-(4-(methylsulfonyl)benzyl)-1,2,3,4-tetrahydroisoquinoline-6-carboxamide], the Ki was > 1000 nM. On the same count and under the same terms, the result for `CC1c2ccc(C(=O)NCc3ccc(S(C)(=O)=O)cc3)cc2CCN1Cc1ccc(C#N)cc1` (racemic) [Hy2A-7, 2-(4-cyanobenzyl)-1-methyl-N-(4-(methylsulfonyl)benzyl)-1,2,3,4-tetrahydroisoquinoline-6-carboxamide] reads > 1000 nM; that for `CCS(=O)(=O)c1ccc(CNC(=O)c2ccc3c(c2)CCN(Cc2ccc(F)cc2)C3C)cc1` (racemic) [Hy2A-8, N-(4-(ethylsulfonyl)benzyl)-2-(4-fluorobenzyl)-1-methyl-1,2,3,4-tetrahydroisoquinoline-6-carboxamide], 100 to 1000 nM; that for `CCS(=O)(=O)c1ccc(CNC(=O)c2ccc3c(c2)CCN(Cc2ccc(C#N)cc2)C3C)cc1` (racemic) [Hy2A-10, 2-(4-cyanobenzyl)-N-(4-(ethylsulfonyl)benzyl)-1-methyl-1,2,3,4-tetrahydroisoquinoline-6-carboxamide], 100 to 1000 nM.

As to `CCS(=O)(=O)c1ccc(CNC(=O)c2ccc3c(c2)CCN(c2ncc(C#N)cn2)[C@@H]3C(C)C)cc1` (single isomer, unassigned) [Hy2A-1.1], the Ki lay within 100 to 1000 nM. On the same count and under the same terms, the result for `CCS(=O)(=O)c1ccc(CNC(=O)c2ccc3c(c2)CCN(c2ncc(C#N)cn2)[C@H]3C(C)C)cc1` (single isomer, unassigned) [Hy2A-1.2] reads 100 to 1000 nM; that for `CCOC(=O)c1cnc(N2CCc3cc(C(=O)NCc4ccc(S(=O)(=O)CC)cc4)ccc3[C@@H]2C(C)C)nc1` (single isomer, unassigned) [Hy2A-4.1], 100 to 1000 nM. As for `CCOC(=O)c1cnc(N2CCc3cc(C(=O)NCc4ccc(S(=O)(=O)CC)cc4)ccc3[C@H]2C(C)C)nc1` (single isomer, unassigned) [Hy2A-4.2], the Ki lay within 100 to 1000 nM.

For the molecule `CCOC(=O)c1cnc(N2CCc3cc(C(=O)NCc4ccc(S(=O)(=O)CC)cc4)ccc3[C@H]2C(C)C)nc1C(F)(F)F` (single isomer, unassigned) [Hy2A-5.2], the inhibition constant (Ki) fell in the range of 100 to 1000 nM. Still for that read-out and setting: the result for `CCS(=O)(=O)c1ccc(CNC(=O)c2ccc3c(c2)CCN(Cc2ncc(C)cn2)[C@@H]3C(C)C)cc1` (single isomer, unassigned) [Hy2A-12.2] reads > 1000 nM; that for `CCS(=O)(=O)c1ccc(CNC(=O)c2ccc3c(c2)CCN(Cc2ccc(C#N)cc2)[C@@H]3C(C)C)cc1` (single isomer, unassigned) [Hy2A-15.2], < 100 nM. Regarding `CCS(=O)(=O)c1ccc(CNC(=O)c2ccc3c(c2)CCN(Cc2ccc(C#N)cn2)[C@@H]3C(C)C)cc1` (single isomer, unassigned) [Hy2A-16.2], the Ki fell in the range of 100 to 1000 nM. On the same count and under the same terms, the result for `CCS(=O)(=O)c1ccc(CNC(=O)c2ccc3c(c2)CCN(Cc2ccc(C#N)nc2)[C@@H]3C(C)C)cc1` (single isomer, unassigned) [Hy2A-17.2] reads 100 to 1000 nM. The same measure, in the same setting: the result for `CCS(=O)(=O)c1ccc(CNC(=O)c2ccc3c(c2)C(C)(C)CN(Cc2cnc(C)cn2)[C@@H]3C(C)C)cc1` (single isomer, unassigned) [Hy2A-22.2] reads 100 to 1000 nM; that for `CCS(=O)(=O)c1ccc(CNC(=O)c2ccc3c(c2)CCN(Cc2ccc(OC(F)F)nc2)[C@@H]3C(C)C)cc1` (single isomer, unassigned) [Hy2A-25.2], 100 to 1000 nM. On the same count and under the same terms, the result for `CCS(=O)(=O)c1ccc(CNC(=O)c2ccc3c(c2)CCN(Cc2ncc(Br)cn2)[C@@H]3C(C)C)cc1` (single isomer, unassigned) [Hy2A-26.2] reads 100 to 1000 nM; that for `CCC1c2ccc(C(=O)NC(CO)c3ccc(S(=O)(=O)CC)cc3)cc2CCN1CC1CCC(C(F)(F)F)CC1` (single isomer, unassigned) [Hy2A-28.3], 100 to 1000 nM. Consider `CCS(=O)(=O)c1ccc(CNC(=O)c2ccc3c(c2)CN(c2ncc(C#N)cn2)C[C@@H]3C(C)C)cc1` (single isomer, unassigned) [Hy7-2.2], for which the Ki is 100 to 1000 nM. The same measure, in the same setting: the result for `CCOc1cnc(N2Cc3cc(C(=O)NCc4ccc(S(=O)(=O)CC)cc4)ccc3[C@@H](C(C)C)C2)nc1` (single isomer, unassigned) [Hy7-5.2] reads 100 to 1000 nM. `CC[C@@H]1CN(c2ncc(C(F)(F)F)cn2)Cc2cc(C(=O)NCc3ccc(S(=O)(=O)CC)cn3)ccc21` (single isomer, unassigned) [Hy7-10.2]: the Ki is 100 to 1000 nM.

With `CCS(=O)(=O)c1ccc(CNC(=O)c2ccc3c(c2)CN(c2ncc(C(F)(F)F)cn2)C[C@@H]3C(C)C)cc1` (single isomer, unassigned) [Hy7-15.2], the inhibitory constant (Ki) is < 100 nM.

Consider `CCOC(=O)c1cnc(N2Cc3cc(C(=O)NCc4ccc(S(=O)(=O)CC)cc4)ccc3[C@@H](C(C)C)C2)nc1` (single isomer, unassigned) [Hy7-16.2], for which the Ki fell in the range of 100 to 1000 nM. Same read-out and setting: the result for `CC[C@H]1CN(c2ncc(C(F)(F)F)cn2)Cc2cc(C(=O)N[C@@H](CO)c3ccc(S(=O)(=O)CC)cn3)ccc21` (single isomer, unassigned) [Hy7-18.3] reads 100 to 1000 nM; that for `CCS(=O)(=O)c1ccc(CNC(=O)c2ccc3c(c2)CN(c2ncc(N4CCOCC4)cn2)C[C@H]3C(C)C)cc1` (single isomer, unassigned) [Hy7-19.1], 100 to 1000 nM.

The same experiment, now with this note: radio-ligand competition, RORγ LBD; head without unit (Tables 15, 17); read-out: Avg ROR Bind Ki.
For `CCS(=O)(=O)c1ccc(CNC(=O)c2cnc3c(c2)CCN(c2ncc(C#N)cn2)[C@H]3C(C)C)cc1` (single isomer, unassigned) [Hy2B-1.1], the Ki is > 1000 nM. Same read-out and setting: the result for `CCS(=O)(=O)c1ccc(CNC(=O)c2cnc3c(c2)CCN(c2ncc(C#N)cn2)[C@@H]3C(C)C)cc1` (single isomer, unassigned) [Hy2B-1.2] reads > 1000 nM; that for `CCS(=O)(=O)c1ccc(CNC(=O)c2cnc3c(c2)CCN(c2ncc(Cl)cn2)[C@H]3C(C)C)cc1` (single isomer, unassigned) [Hy2B-2.1], 100 to 1000 nM; that for `CCS(=O)(=O)c1ccc(CNC(=O)c2cnc3c(c2)CCN(c2ncc(Cl)cn2)[C@@H]3C(C)C)cc1` (single isomer, unassigned) [Hy2B-2.2], > 1000 nM. Same read-out and setting: the result for `CCS(=O)(=O)c1ccc(CNC(=O)c2cnc3c(c2)CCN(c2ncc(C(F)(F)F)cn2)[C@H]3C(C)C)cc1` (single isomer, unassigned) [Hy2B-3.1] reads 100 to 1000 nM. For `CCS(=O)(=O)c1ccc(CNC(=O)c2cnc3c(c2)CCN(c2ncc(C(F)(F)F)cn2)[C@@H]3C(C)C)cc1` (single isomer, unassigned) [Hy2B-3.2], the inhibitory constant (Ki) is 100 to 1000 nM. Same read-out and setting: the result for `CCOC(=O)c1cnc(N2CCc3cc(C(=O)NCc4ccc(S(=O)(=O)CC)cc4)cnc3[C@H]2C(C)C)nc1` (single isomer, unassigned) [Hy2B-4.1] reads > 1000 nM.

Take `CCOC(=O)c1cnc(N2CCc3cc(C(=O)NCc4ccc(S(=O)(=O)CC)cc4)cnc3[C@@H]2C(C)C)nc1` (single isomer, unassigned) [Hy2B-4.2]: the Ki was > 1000 nM.

With `CCOC(=O)c1cnc(N2CCc3cc(C(=O)NCc4ccc(S(=O)(=O)CC)cc4)cnc3[C@H]2C(C)C)nc1C(F)(F)F` (single isomer, unassigned) [Hy2B-5.1], the Ki was 100 to 1000 nM. Same read-out and setting: the result for `CCOC(=O)c1cnc(N2CCc3cc(C(=O)NCc4ccc(S(=O)(=O)CC)cc4)cnc3[C@@H]2C(C)C)nc1C(F)(F)F` (single isomer, unassigned) [Hy2B-5.2] reads 100 to 1000 nM; that for `CCS(=O)(=O)c1ccc(CNC(=O)c2cnc3c(c2)CCN(Cc2ccc(F)cc2)C3C(C)C)cc1` (single isomer, unassigned) [Hy2B-6.2], 100 to 1000 nM.

`CCS(=O)(=O)c1ccc(CNC(=O)c2cnc3c(c2)CCN(Cc2ccc(C#N)cc2)C3C(C)C)cc1` (single isomer, unassigned) [Hy2B-7.2]: the Ki is > 1000 nM. The same measure, in the same setting: the result for `CCS(=O)(=O)c1ccc(CNC(=O)c2cnc3c(c2)CCN(Cc2ccc(Cl)cc2)C3C(C)C)cc1` (single isomer, unassigned) [Hy2B-8.2] reads 100 to 1000 nM. Take `CCS(=O)(=O)c1ccc(CNC(=O)c2cnc3c(c2)CCN(C[C@H]2CC[C@H](C(F)(F)F)CC2)[C@@H]3C(C)C)cc1` (single isomer, unassigned) [Hy2B-9.2]: the inhibition constant (Ki) lay within 100 to 1000 nM.

Take `CCS(=O)(=O)c1ccc(CNC(=O)c2cnc3c(c2)CCN(C[C@H]2CC[C@H](C(F)(F)F)CC2)[C@@H]3C(C)C)nc1` (single isomer, unassigned) [Hy2B-10.2]: the Ki lay within 100 to 1000 nM.
